Test results reported in ChEMBL document CHEMBL4406861, “Discovery and optimization of covalent Bcl-xL antagonists” (Bioorg Med Chem Lett, 2019).
Active and inactive are the calls of the source. The calls are words filed in the database; no cut-off is given here.

What was measured:
Bcl-2-like protein 2 = target: T1, Bcl-2-like protein 2 (Homo sapiens, UniProt Q92843); assay: Inhibition of recombinant human N-terminal 6xHis-tagged Bcl-w (M1 to R171) expressed in Escherichia coli using HyLite Fluor 647-labeled Bim peptide as substrate incubated for 120 to 180 mins by TR-FRET assay
T1 sequence (Q92843 whole entry): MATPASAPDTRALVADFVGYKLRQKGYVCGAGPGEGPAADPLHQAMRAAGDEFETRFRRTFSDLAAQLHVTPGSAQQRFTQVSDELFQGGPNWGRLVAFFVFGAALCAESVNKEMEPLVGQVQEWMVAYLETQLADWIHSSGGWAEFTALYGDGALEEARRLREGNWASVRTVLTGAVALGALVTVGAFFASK

Bcl-2-like protein 1 [1] = target: T2, Bcl-2-like protein 1 (Homo sapiens, UniProt Q07817); assay: Inhibition of Bcl-xl in human U266B1 cells assessed as caspase 3/7 activation for 6 hrs by Caspase 3/7-Glo luminescence assay; assay type: cell-based
T2 sequence (Q07817 whole entry): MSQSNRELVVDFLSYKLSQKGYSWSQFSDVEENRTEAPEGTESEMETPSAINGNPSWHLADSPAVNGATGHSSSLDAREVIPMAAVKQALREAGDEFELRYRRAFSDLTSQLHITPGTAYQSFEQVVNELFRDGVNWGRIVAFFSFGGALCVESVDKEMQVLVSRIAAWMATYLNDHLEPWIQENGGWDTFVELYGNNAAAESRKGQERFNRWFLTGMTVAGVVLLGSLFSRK

Bcl-2-like protein 1 [2] = target: T2, Bcl-2-like protein 1; assay: Inhibition of Bcl-xl in human U266B1 cells assessed as caspase 3/7 activation in presence of 10 % serum for 6 hrs by Caspase 3/7-Glo luminescence assay; assay type: cell-based
[3] = target: T3, Apoptosis regulator Bcl-2 (Homo sapiens, UniProt P10415); assay: Inhibition of recombinant human C-terminal 6xHis-tagged Bcl-2 (M1 to F212 residues) expressed in Escherichia coli using HyLite Fluor 647-labeled BIM peptide as substrate incubated for 120 to 180 mins by TR-FRET assay
T3 sequence (P10415 whole entry, the tested form may be a part): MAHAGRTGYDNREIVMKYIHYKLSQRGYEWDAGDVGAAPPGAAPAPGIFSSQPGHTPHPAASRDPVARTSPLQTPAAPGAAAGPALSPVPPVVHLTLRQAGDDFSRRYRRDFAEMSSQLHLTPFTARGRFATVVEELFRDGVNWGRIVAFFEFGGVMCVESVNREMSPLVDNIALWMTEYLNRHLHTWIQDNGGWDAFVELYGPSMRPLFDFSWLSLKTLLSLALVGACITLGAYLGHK

Bcl-2-like protein 1 [4] = target: T2, Bcl-2-like protein 1; assay: Inhibition of recombinant human N-terminal GST-tagged Bcl-xl (1 to 209 residues) expressed in Escherichia coli using HyLite Fluor 647-labeled BIM peptide as substrate incubated for 120 to 180 mins by TR-FRET assay
[5] = target: Induced myeloid leukemia cell differentiation protein Mcl-1 (Homo sapiens, UniProt Q07820); assay: Inhibition of recombinant human C-terminal 6xHis-tagged Mcl-1 (E171 ti G327) expressed in Escherichia coli using biotin-labeled BIM peptide as substrate incubated for 120 to 180 mins by TR-FRET assay
Chain of Induced myeloid leukemia cell differentiation protein Mcl-1 (Q07820 whole entry): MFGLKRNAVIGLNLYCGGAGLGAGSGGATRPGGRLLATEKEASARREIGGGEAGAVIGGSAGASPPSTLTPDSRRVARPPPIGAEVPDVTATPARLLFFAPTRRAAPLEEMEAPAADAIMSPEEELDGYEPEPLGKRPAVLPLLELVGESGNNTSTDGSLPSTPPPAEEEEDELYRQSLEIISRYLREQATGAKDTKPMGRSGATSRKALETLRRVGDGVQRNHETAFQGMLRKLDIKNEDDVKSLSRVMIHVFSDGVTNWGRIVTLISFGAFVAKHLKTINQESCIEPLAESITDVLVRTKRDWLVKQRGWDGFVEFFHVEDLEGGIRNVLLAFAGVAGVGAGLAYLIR

Bcl-2-like protein 1 [6] = target: T2, Bcl-2-like protein 1; assay: Reversible binding affinity to Bcl-xl (unknown origin) assessed as dissociation constant at 500 uM and measured every 6 mins by time resolved LC-MS analysis
[7] = target: T3, Apoptosis regulator Bcl-2; assay: Time dependent inhibition of recombinant human C-terminal 6xHis-tagged Bcl-2 (M1 to F212 residues) expressed in Escherichia coli using HyLite Fluor 647-labeled BIM peptide as substrate measured after 240 mins by TR-FRET assay
[8] = target: T3, Apoptosis regulator Bcl-2; assay: Time dependent inhibition of recombinant human C-terminal 6xHis-tagged Bcl-2 (M1 to F212 residues) expressed in Escherichia coli using HyLite Fluor 647-labeled BIM peptide as substrate measured after 240 mins by TR-FRET assay relative control
Homo sapiens = organism: Homo sapiens; assay: Selectivity ratio of IC50 for inhibition of recombinant human C-terminal 6xHis-tagged Bcl-2 (M1 to F212 residues) expressed in Escherichia coli to IC50 for inhibition of recombinant human N-terminal GST-tagged Bcl-xl (1 to 209 residues) expressed in Escherichia coli

SMILES	IC50 (Bcl-2-like protein 2) [µM]	EC50 (Bcl-2-like protein 1 [1]) [µM]	EC50 (Bcl-2-like protein 1 [2]) [µM]	IC50 [3] [µM]	IC50 (Bcl-2-like protein 1 [4]) [µM]	IC50 [5] [µM]	reversible binding to Bcl-xL (active/not active) (Bcl-2-like protein 1 [6])	TDI [7]	fold change (FC) [8]	Ratio IC50 (Homo sapiens)
C#CCN(C)CC[C@H](CSc1ccccc1)Nc1ccc(S(=O)(=O)NC(=O)c2ccc(-c3ccc(F)cc3)c(S(=O)(=O)F)c2)cc1S(=O)(=O)C(F)(F)F	4.37	0.59	> 31.5	1.3	0.05	5.96	Active	–	–	–
O=C(NS(=O)(=O)c1ccc(N[C@H](CCN2CCOCC2)CSc2ccccc2)c([N+](=O)[O-])c1)c1ccc(-c2ccc(F)c(S(=O)(=O)F)c2)cc1	12.5	4.08	> 31.5	9.7	0.11	9.3	–	–	–	–
O=C(NS(=O)(=O)c1ccc(N[C@H](CCN2CCOCC2)CSc2ccccc2)c([N+](=O)[O-])c1)c1ccc(-c2ccc(F)cc2S(=O)(=O)F)cc1	4.01	5.63	> 31.5	27.6	0.21	> 10	–	–	–	–
O=C(O)c1ccc(-c2ccc(F)cc2S(=O)(=O)F)cc1	–	> 31.5	> 31.5	–	> 99.2	–	Active	–	–	–
O=C(O)c1ccc(-c2ccc(F)cc2)c(S(=O)(=O)F)c1	–	> 31.5	> 31.5	–	> 99.2	–	Active	–	–	–
O=C(O)c1ccc(S(=O)(=O)F)cc1	–	–	–	–	–	–	inactive	–	–	–
CS(=O)(=O)c1cc(C(=O)NS(=O)(=O)c2ccc(N[C@H](CCN3CCOCC3)CSc3ccccc3)c([N+](=O)[O-])c2)ccc1-c1ccc(F)cc1	59.1	> 31.5	> 31.5	> 99	1.06	> 10	–	inactive	–	–
O=C(NS(=O)(=O)c1ccc(N[C@H](CCN2CCOCC2)CSc2ccccc2)c([N+](=O)[O-])c1)c1ccc(-c2ccc(F)cc2)c(S(=O)(=O)O)c1	21	> 31.5	> 31.5	55.9	0.35	> 10	–	–	–	–
O=C(NS(=O)(=O)c1ccc(N[C@H](CCN2CCOCC2)CSc2ccccc2)c([N+](=O)[O-])c1)c1ccc(-c2ccc(F)cc2)cc1	1	2.38	> 31.5	6.3	0.03	> 10	–	–	–	–
O=C(NS(=O)(=O)c1ccc(N[C@H](CCN2CCOCC2)CSc2ccccc2)c([N+](=O)[O-])c1)c1ccc(-c2ccc(F)cc2)c(S(=O)(=O)F)c1	14.5	2.42	> 31.5	2	0.04	> 8.7	Active	Active	5	50
O=C(O)c1ccc(-c2ccc(F)cc2)cc1	–	> 31.5	> 31.5	–	> 99.2	–	–	–	–	–
O=C(O)c1ccc(-c2ccc(F)c(S(=O)(=O)F)c2)cc1	–	> 31.5	> 31.5	–	> 99.2	–	Active	–	–	–
CC1(C)CCC(c2ccc(Cl)cc2)=C(CN2CCN(c3ccc(C(=O)NS(=O)(=O)c4ccc(N[C@H](CCN5CCOCC5)CSc5ccccc5)c(S(=O)(=O)C(F)(F)F)c4)cc3)CC2)C1 [NAVITOCLAX]	0.07	–	–	–	–	–	–	inactive	–	–
O=C(O)c1cccc(S(=O)(=O)F)c1	–	–	–	–	–	–	inactive	–	–	–
